Experimental data from patent US20080312581A1, “Peptosomes for Use in Acoustically Mediated Intracellular Drug Delivery in vivo” (Biovaluation & Analysis, Inc., priority 2007, published 2008).

Tested on: Henrietta Lacks (HeLa) cells and human aortic smooth muscle cells (AoSMC)
Assay: Ultrasound-mediated peptosome rupture and intracellular calcein delivery, flow cytometry
Type: cell-based
Conditions: calcein released from peptosomes, contrast agent present
Excerpt: Ultrasound. Ultrasonic energy is produced using an immersible, focused, piezoceramic transducer. In this experimental system, two different matching resistance networks are necessary, allowing production of sound at 1.0 MHz and 3.0 MHz, similar to a method known in the art (Guzmán et al., 2001a, 2001b, 2002, and 2003; and […] et al., 2006). A sinusoidal waveform is produced by, for example, programmable waveform generators (Stanford Research Instruments, Sunnyvale, Calif.) used in conjunction to control pulse length, frequency, and peak-to-peak voltage. The sinusoidal waveform is amplified by an RF broadband power amplifier (Electronic Navigation Industries, Rochester, N.Y.) before passing through a matching network and controlling the response of the transducer. The transducer is housed in a polycarbonate tank (FIG. 11 [601]) -34.5×32×40 cm; containing approximately 34 liters of deionized, distilled, and partially degassed water at room temperature (i.e., 22° C. to 23° C.). A thick acoustic absorber is mounted opposite the transducer to minimize standing-wave formation (not illustrated). […] A metal rod (606) is immediately inserted into the open end of the sample chamber and then attached to the three-axis positioning system (603), placing the sample in the desired location as determined by the hydrophone (604). […]

Q: Which “calcein uptake into cells” value (mild ultrasound conditions) does the source give for O=C(O)CN(CC(=O)O)Cc1cc2c(cc1O)Oc1cc(O)c(CN(CC(=O)O)CC(=O)O)cc1C21OC(=O)c2ccccc21 [calcein, Calcein] here?
A: low levels

Q: What about the “calcein uptake into cells” value (moderate ultrasound conditions) of the same compound?
A: as many as one-third of cells
